Patent publication US9957268B2, “1H-pyrrolo[2,3,c]pyridin-7(6H)-ones and pyrazolo[3,4-c]pyridin-7(6H)-ones as inhibitors of BET proteins” (Incyte Corporation, priority 2014, dated 2018)

Experiments:
BRD4-BD2 = BRD4-BD2 (Homo sapiens (Human), UniProt O60885); assay: BRD4 AlphaScreen assay (BRD4-BD2); format: binding; conditions: biotin-labeled tetra-acetylated histone H4 peptide
Description: (§1) BRD4-BD1 and BRD4-BD2 assays were conducted in white 384-well polystyrene plate in a final volume of 40 μL for BD1 and 60 μL for BD2. Inhibitors were first serially diluted in DMSO and added to the plate wells before the addition of other reaction components. The final concentration of DMSO in the assay was 1.25% (BD1) and 0.83% (BD2). The assays were carried out at room temperature in the assay buffer (50 mM Tris-HCl, pH 7.5, 0.01% Tween-20, 0.01% BSA, 5 mM DTT), containing 50 nM Biotin-labeled tetra-acetylated histone H4 peptide (H4Ac4) and BRD4-BD1 or BRD4-BD2 protein at concentration less than 1 nM. The incubation for 75 min. was followed by the addition of 20 μL of assay buffer supplemented with Streptavidin donor beads (PerkinElmer 6760002) and GSH Acceptor beads (PerkinElmer-AL109C) at final concentration 2-4 μg/mL under reduced light. After plate sealing, the plate was incubated in the dark at room temperature for 75 min. before reading on a PHERAstar FS plate reader (BMG Labtech). IC50 determination was performed by fitting the curve of percent control activity versus the log of the inhibitor concentration using the GraphPad Prism 5.0 software.

BRD4-BD1 = BRD4-BD1 (Homo sapiens (Human), UniProt O60885); assay: BRD4 AlphaScreen assay (BRD4-BD1); format: binding; conditions: biotin-labeled tetra-acetylated histone H4 peptide
Description: as §1

SMILES	IC50 (BRD4-BD2) [µM]	IC50 (BRD4-BD1) [µM]
Cn1cc(-c2cc(S(C)(=O)=O)cc3c2OC(c2ccccc2)C(=O)N3)c2cc[nH]c2c1=O (stereo not drawn) [Example 46, 8-(6-methyl-7-oxo-6,7-dihydro-1H-pyrrolo[2,3-c]pyridin-4-yl)-6-(methylsulfonyl)-2-phenyl-2H-1,4-benzoxazin-3(4H)-one]	≤ 0.1	≤ 0.1
Cn1cc(-c2cccc3c2OC(C2CCOCC2)C(=O)N3)c2cc[nH]c2c1=O (stereo not drawn) [Example 7, 8-(6-methyl-7-oxo-6,7-dihydro-1H-pyrrolo[2,3-c]pyridin-4-yl)-2-(tetrahydro-2H-pyran-4-yl)-2H-1,4-benzoxazin-3(4H)-one]	≤ 0.1	≤ 0.1
COc1cc2c(c(-c3cn(C)c(=O)c4[nH]ccc34)c1)OC(c1ccc(F)cc1Cl)C(=O)N2 (stereo not drawn) [Example 25, 2-(2-chloro-4-fluorophenyl)-6-methoxy-8-(6-methyl-7-oxo-6,7-dihydro-1H-pyrrolo[2,3-c]pyridin-4-yl)-2H-1,4-benzoxazin-3(4H)-one]	≤ 0.1	≤ 0.1
COc1cc2c(c(-c3cn(C)c(=O)c4[nH]ccc34)c1)OC(c1ccccc1)C(=O)N2 (stereo not drawn) [Example 24, 6-methoxy-8-(6-methyl-7-oxo-6,7-dihydro-1H-pyrrolo[2,3-c]pyridin-4-yl)-2-phenyl-2H-1,4-benzoxazin-3(4H)-one]	≤ 0.1	≤ 0.1
CC1Oc2c(cccc2-c2cn(C)c(=O)c3[nH]ccc23)NC1=O (stereo not drawn) [Example 3, 2-methyl-8-(6-methyl-7-oxo-6,7-dihydro-1H-pyrrolo[2,3-c]pyridin-4-yl)-2H-1,4-benzoxazin-3(4H)-one]	≤ 0.1	0.1 to 1
CC(=O)c1cc(-c2cn(C)c(=O)c3[nH]ccc23)c2c(c1)N(C)C(=O)C(C)(C)O2 [Example 82, 6-acetyl-2,2,4-trimethyl-8-(6-methyl-7-oxo-6,7-dihydro-1H-pyrrolo[2,3-c]pyridin-4-yl)-2H-1,4-benzoxazin-3(4H)-one]	≤ 0.1	≤ 0.1
Cn1cc(-c2cc(S(C)(=O)=O)cc3c2OC2(CC2)C(=O)N3)c2cn[nH]c2c1=O [Example 65, 8-(6-methyl-7-oxo-6,7-dihydro-1H-pyrazolo[3,4-c]pyridin-4-yl)-6-(methylsulfonyl)spiro[1,4-benzoxazine-2,1′-cyclopropan]-3(4H)-one]	≤ 0.1	≤ 0.1
COc1cc2c(c(-c3cn(C)c(=O)c4[nH]ccc34)c1)OC(c1ccccc1)C(=O)N2 (single isomer, unassigned) [Example 24B, 6-methoxy-8-(6-methyl-7-oxo-6,7-dihydro-1H-pyrrolo[2,3-c]pyridin-4-yl)-2-phenyl-2H-1,4-benzoxazin-3(4H)-one]	≤ 0.1	≤ 0.1
Cn1cc(-c2cccc3c2OC(C)(C)C(=O)N3)c2cc[nH]c2c1=O [Example 31, 2,2-dimethyl-8-(6-methyl-7-oxo-6,7-dihydro-1H-pyrrolo[2,3-c]pyridin-4-yl)-2H-1,4-benzoxazin-3(4H)-one]	≤ 0.1	≤ 0.1
COc1cc2c(c(-c3cn(C)c(=O)c4[nH]ncc34)c1)OC(C(C)C)C(=O)N2 (stereo not drawn) [Example 26, 2-isopropyl-6-methoxy-8-(6-methyl-7-oxo-6,7-dihydro-1H-pyrazolo[3,4-c]pyridin-4-yl)-2H-1,4-benzoxazin-3(4H)-one]	≤ 0.1	≤ 0.1
CC(C)C1Oc2c(cc(S(C)(=O)=O)cc2-c2cn(C)c(=O)c3[nH]ccc23)NC1=O (single isomer, unassigned) [Example 44B, 2-isopropyl-8-(6-methyl-7-oxo-6,7-dihydro-1H-pyrrolo[2,3-c]pyridin-4-yl)-6-(methylsulfonyl)-2H-1,4-benzoxazin-3(4H)-one]	≤ 0.1	≤ 0.1
Cn1cc(-c2cccc3c2OC(c2ccccn2)C(=O)N3)c2cc[nH]c2c1=O (stereo not drawn) [Example 5, 8-(6-methyl-7-oxo-6,7-dihydro-1H-pyrrolo[2,3-c]pyridin-4-yl)-2-pyridin-2-yl-2H-1,4-benzoxazin-3(4H)-one 2,2,2-trifluoroacetate]	≤ 0.1	0.1 to 1
COc1cc2c(c(-c3cn(C)c(=O)c4[nH]ncc34)c1)OC(C1CCCC1)C(=O)N2 (stereo not drawn) [Example 42, 2-Cyclopentyl-6-methoxy-8-(6-methyl-7-oxo-6,7-dihydro-1H-pyrazolo[3,4-c]pyridin-4-yl)-2H-1,4-benzoxazin-3(4H)-one]	≤ 0.1	≤ 0.1
CC(=O)c1cc2c(c(-c3cn(C)c(=O)c4[nH]ccc34)c1)OC(C)(C)C(=O)N2 [Example 80, 6-acetyl-2,2-dimethyl-8-(6-methyl-7-oxo-6,7-dihydro-1H-pyrrolo[2,3-c]pyridin-4-yl)-2H-1,4-benzoxazin-3(4H)-one]	≤ 0.1	≤ 0.1
Cn1cc(-c2cccc3c2OC(C2CC2)C(=O)N3)c2cc[nH]c2c1=O (stereo not drawn) [Example 6, 2-cyclopropyl-8-(6-methyl-7-oxo-6,7-dihydro-1H-pyrrolo[2,3-c]pyridin-4-yl)-2H-1,4-benzoxazin-3(4H)-one]	≤ 0.1	≤ 0.1

Second part, the molecule after the results:

IC50 (BRD4-BD2) [µM]	IC50 (BRD4-BD1) [µM]	SMILES
≤ 0.1	≤ 0.1	CCS(=O)(=O)c1cc2c(c(-c3cn(C)c(=O)c4[nH]ccc34)c1)OC(C)(C)C(=O)N2 [Example 78, 6-(ethylsulfonyl)-2,2-dimethyl-8-(6-methyl-7-oxo-6,7-dihydro-1H-pyrrolo[2,3-c]pyridin-4-yl)-2H-1,4-benzoxazin-3(4H)-one]
≤ 0.1	≤ 0.1	COCc1cc2c(c(-c3cn(C)c(=O)c4[nH]ccc34)c1)OC(C(C)C)C(=O)N2 (stereo not drawn) [Example 37, 2-isopropyl-6-(methoxymethyl)-8-(6-methyl-7-oxo-6,7-dihydro-1H-pyrrolo[2,3-c]pyridin-4-yl)-2H-1,4-benzoxazin-3(4H)-one]
≤ 0.1	≤ 0.1	CC(C)C1Oc2c(-c3cn(C)c(=O)c4[nH]ccc34)cc(S(C)(=O)=O)cc2N(C)C1=O (single isomer, unassigned) [Example 47B, 2-isopropyl-4-methyl-8-(6-methyl-7-oxo-6,7-dihydro-1H-pyrrolo[2,3-c]pyridin-4-yl)-6-(methylsulfonyl)-2H-1,4-benzoxazin-3(4H)-one]
≤ 0.1	≤ 0.1	CC(=O)NCc1cc2c(c(-c3cn(C)c(=O)c4[nH]ccc34)c1)OC(C(C)C)C(=O)N2 (stereo not drawn) [Example 40, N-{[2-isopropyl-8-(6-methyl-7-oxo-6,7-dihydro-1H-pyrrolo[2,3-c]pyridin-4-yl)-3-oxo-3,4-dihydro-2H-1,4-benzoxazin-6-yl]methyl}acetamide]
≤ 0.1	≤ 0.1	CC(C)[C@@H]1Nc2c(cc(S(C)(=O)=O)cc2-c2cn(C)c(=O)c3[nH]ccc23)NC1=O [Example 60, (3S)-3-isopropyl-5-(6-methyl-7-oxo-6,7-dihydro-1H-pyrrolo[2,3-c]pyridin-4-yl)-7-(methylsulfonyl)-3,4-dihydroquinoxalin-2(1H)-one]
≤ 0.1	≤ 0.1	CCS(=O)(=O)c1cc2c(c(-c3cn(C)c(=O)c4[nH]ccc34)c1)OC(C(C)C)C(=O)N2 (stereo not drawn) [Example 51, 6-(ethylsulfonyl)-2-isopropyl-8-(6-methyl-7-oxo-6,7-dihydro-1H-pyrrolo[2,3-c]pyridin-4-yl)-2H-1,4-benzoxazin-3(4H)-one]
≤ 0.1	≤ 0.1	CC(O)c1cc2c(c(-c3cn(C)c(=O)c4[nH]ccc34)c1)OC(C)(C)C(=O)N2 (stereo not drawn) [Example 81, 6-(1-hydroxyethyl)-2,2-dimethyl-8-(6-methyl-7-oxo-6,7-dihydro-1H-pyrrolo[2,3-c]pyridin-4-yl)-2H-1,4-benzoxazin-3(4H)-one]
≤ 0.1	≤ 0.1	CN1C(=O)C2(CC2)Oc2c(-c3cn(C)c(=O)c4[nH]ccc34)cc(S(C)(=O)=O)cc21 [Example 63, 4-methyl-8-(6-methyl-7-oxo-6,7-dihydro-1H-pyrrolo[2,3-c]pyridin-4-yl)-6-(methylsulfonyl)spiro[1,4-benzoxazine-2,1′-cyclopropan]-3(4H)-one]
≤ 0.1	≤ 0.1	CNS(=O)(=O)c1cc2c(c(-c3cn(C)c(=O)c4[nH]ccc34)c1)OC(C(C)C)C(=O)N2 (stereo not drawn) [Example 68, 2-isopropyl-N-methyl-8-(6-methyl-7-oxo-6,7-dihydro-1H-pyrrolo[2,3-c]pyridin-4-yl)-3-oxo-3,4-dihydro-2H-1,4-benzoxazine-6-sulfonamide]
≤ 0.1	≤ 0.1	CCS(=O)(=O)NCc1cc2c(c(-c3cn(C)c(=O)c4[nH]ccc34)c1)OC(C(C)C)C(=O)N2 (stereo not drawn) [Example 39, N-{[2-isopropyl-8-(6-methyl-7-oxo-6,7-dihydro-1H-pyrrolo[2,3-c]pyridin-4-yl)-3-oxo-3,4-dihydro-2H-1,4-benzoxazin-6-yl]methyl}ethanesulfonamide]
≤ 0.1	≤ 0.1	CC(C)C1Oc2c(-c3cn(C)c(=O)c4[nH]ccc34)cc(S(C)(=O)=O)cc2N(C)C1=O (single isomer, unassigned) [Example 47A, 2-isopropyl-4-methyl-8-(6-methyl-7-oxo-6,7-dihydro-1H-pyrrolo[2,3-c]pyridin-4-yl)-6-(methylsulfonyl)-2H-1,4-benzoxazin-3(4H)-one]
≤ 0.1	0.1 to 1	CC(C)C1Oc2c(cc(CN)cc2-c2cn(C)c(=O)c3[nH]ccc23)NC1=O (stereo not drawn) [Example 38, 6-(Aminomethyl)-2-isopropyl-8-(6-methyl-7-oxo-6,7-dihydro-1H-pyrrolo[2,3-c]pyridin-4-yl)-2H-1,4-benzoxazin-3(4H)-one]
